According to patent US20170240592A1, “GADD45BETA/MKK7 INHIBITOR FOR THE TREATMENT OF A RESISTANT HAEMATOLOGICAL MALIGNANCY” (IMPERIAL INNOVATIONS LIMITED, priority 2014, published 2017):

How the values were obtained:
[1] = test system: drug-resistant multiple myeloma cell lines; assay: [3H]thymidine incorporation assay, sensitive and drug-resistant multiple myeloma cell lines; format: cell-based, human; conditions: 6-day treatment; MM1.R, AMO-1a, MM1/R10R, U266/R10R
Excerpt: Matching pairs of sensitive (parental) and drug-resistant multiple myeloma cell lines were as follows: MM1.S (parental) and MM1.R (dexamethasone-resistant); AMO-1 (parental) and AMO-1a (bortezomib-resistant); MM1.S (parental) and MM1/R10R (lenalidomide-resistant); U266 (parental) and U266/R10R (lenalidomide-resistant). […] For clarity purposes, the same data for the parental MM1.S MM multiple myeloma cell line are shown as control for the dexamethasone-resistant (MM1.R) MM multiple myeloma cell line and the lenalidomide-resistant (MM1/R10R) MM multiple myeloma cell line.

[2] = test system: diffuse large B-cell lymphoma (DLBCL) cell lines; assay: PI nuclear staining assay, apoptotic cells in DLBCL cell lines; format: cell-based, human; conditions: 10 μM, 6 days
Protocol: Current treatment of diffuse large B-cell lymphoma typically involves treatment with combination therapy, such as cyclophosphamide, doxorubicin, vincristine and prednisone (CHOP), or rituximab, cyclophosphamide, doxorubicin, vincristine and prednisone (R-CHOP). With those current treatments, many patients relapse and/or develop drug resistance at some point. The potential of the Gadd45β/MKK7 inhibitor DTP3 to operate in these settings was evaluated, by determining levels of apoptosis in diffuse large B-cell lymphoma cell lines known to be resistant to current therapies (HT, SU-DHL-8, U-2932, RC-K8 and RIVA, see for example Kaneko et al, Clinical Cancer Research, 2014, 20, p 1814-1820; Naylor et al, Cancer Research, 2011, Volume 71, p 2643-2653; Lyu et al, Cancer Research, 2013, Volume 73, Issue 8, Supplement 1), following treatment of those cells with DTP3. These cells have CARD11, A20 and/or MYD88 mutations and are also known to be resistant to agents such as Bruton's tyrosine kinase inhibitors, spleen tyrosine kinase inhibitors, PI3K inhibitors and/or protein kinase C inhibitors.
The percentages of apoptotic cells are depicted.
A comparison was made between the ability of DTP3 to kill various DLBCL cell lines by apoptosis in vitro. Cell lines HT, SU-DHL-8, U-2932 and RC-K8 which are known to be sensitive to DTP3; and insensitive cell lines RI-1, NU-DUL-1, TMD8, and HBL1 were used. Cell death was assessed using a standard propidium iodide (PI) nuclear staining assay followed by flow cytometry whereby the proportion of cells with a sub G1-DNA content was measured after cells had been exposed to DTP3 for 6 days at 10 μM. As controls, further populations of cells were left untreated (UT) or were treated with a scrambled D-tripeptide (SCR) for 6 days.
Apoptosis analyses were performed using propidium iodide (PI) nuclear labelling, as described previously (Riccardi and Nicoletti, 2006). Briefly, cells were seeded at a density of 2×10^5 cells/well into wells of either 24- or 48-well plates and cultured in the presence or absence of treatment, as shown. Cells were then fixed in 70% ice-cold ethanol for 16 hr, washed in PBS, and treated with ribonuclease A (50 μg/mL) for 30 min at room temperature. Samples were finally stained with PI (50 μg/mL) in 0.1% sodium citrate buffer for 2 to 4 hr at 4° C. in the dark, and data were acquired using a FACSCalibur automated system (Becton Dickinson) and analysed with FlowJo.

CC(=O)N[C@H](Cc1ccc(O)cc1)C(=O)N[C@H](CCCNC(=N)N)C(=O)N[C@H](Cc1ccccc1)C(N)=O [DTP3, Acetyl-Tyr-Arg-Phe-NH2]
efficacy in multiple myeloma cell lines resistant to dexamethasone, bortezomib and lenalidomide [1]: retained full therapeutic efficacy
apoptosis in DLBCL cell lines resistant to conventional DLBCL treatments ([2]; HT, SU-DHL-8, U-2932, RC-K8): effective in causing apoptosis
apoptosis in sensitive DLBCL cell lines ([2]; HT, SU-DHL-8, U-2932, RC-K8): substantial increases in apoptosis
apoptosis in insensitive DLBCL cell lines ([2]; RI-1, NU-DUL-1, TMD8, HBL1): no increase in apoptosis
